# In US20220133729A1, “COMPOSITIONS AND METHODS FOR TREATING BASAL FOREBRAIN DISEASE” (EIP Pharma, Inc., priority 2019, published 2022):
# Experiments:
# [1] = system: Ts2 mice; assay: Ts2 mice treated 28 days with neflamapimod; medial septal nucleus ChAT+ neurons quantitated; format: in vivo; conditions: 3 mg/kg twice-daily
# Description: Wild-type (WT) or Ts2 mice treated for 28 days, twice-daily, with vehicle (1% PluronicF108) or 3 mg/kg neflamapimod in vehicle (n=8-10 per group; 1:1 female/male). Treatment initiated at 4.7-6.4 months of age, when cholinergic neuronal loss is developing in Ts2 mice. Cortical Rab5+ endosomal number and size, and medial septal nucleus (MSN) cholineacetyltransferase (ChAT)+ neurons quantitated.
# [2] = system: subjects with DLB; assay: Phase 2 randomized, double-blind, placebo-controlled study of neflamapimod in subjects with DLB; format: in vivo, human; conditions: DLB patients
# Text: A Phase 2, multi-center, randomized, double-blind, placebo-controlled study is run of neflamapimod versus matching placebo (randomized 1:1) administered with food for 16 weeks in subjects with DLB. The primary objective is to evaluate the effect of neflamapimod on cognitive function as assessed in a study-specific COGSTATE Neuropsychological Test Battery (NTB). Secondary endpoints include the Clinical Dementia Rating Scale-Sum of Boxes (CDR-SB), Mini-Mental State Examination (MMSE), Neuropsychiatric Inventory (NPI-10), Timed Up and Go Test, and electroencephalogram (EEG) as a potential biomarker for DLB.
# Neflamapimod 40 mg capsules are administered orally, BID or TID with food for 16 weeks; subjects will follow the BID regimen if weighing <80 kg or the TID regimen if weighing ≥80 kg. A placebo comparator is 40 mg matching placebo capsules administered orally, BID or TID with food for 16 weeks; subjects will follow the BID regimen if weighing <80 kg or the TID regimen if weighing ≥80 kg.
# A primary outcome measure is a composite score of a study-specific COGSTATE Neurological Test Battery (NTB) including the COGSTATE Letter Fluency Test and Category Fluency Test at 16 weeks. A change from Baseline to Week 16 in the composite score of a study-specific Cog-state Neurological Test Battery (NTB), including assessments of attention, executive function, and visuospatial function in neflamapimod treated-subjects as compared to the placebo-treated subjects, are analyzed using the Mixed Model Repeated Measures (MMRM) analysis method. The following six tests are included in the composite: (1) COGSTATE Detection test (DET), (2) COGSTATE Identification test (IDN), (3) COGSTATE One Card Learning test (OCL), (4) COGSTATE One Back test (ONB), (5) Letter Fluency Test, (6) Category Fluency Test (CFT). Each score on the individual tests will be converted to a z-score, and then a total z-score will be calculated, in which each test is weighted equally. The change in total z-score in neflamapimod vs. placebo-recipients is analyzed. […]
smiles,measurement,setting,value
O=c1ncn2nc(Sc3ccc(F)cc3F)ccc2c1-c1c(Cl)cccc1Cl [neflamapimod],cholinergic neuron degeneration in the medial septal nucleus,[1],ameliorated
same,morphology (size) of ChAT+ neurons in the medial septal nucleus (MSN),[1]; oral,normalizes
same,ChAT-positive neuron number in the medial septal nucleus,"[1]; oral, stereological quantification",normalizes
same,"Mean change from baseline to Week 8, MMSE","[2]; 40 mg TID dosing regimen, increase represents improvement, p=0.033 vs placebo",+1.07
same,"Mean change from baseline to Week 4, Letter Fluency Test (LFT)","[2]; 40 mg capsules BID or TID, increase represents improvement, p=0.027 vs placebo, preliminary assessment",+3.0
same,"Mean change from baseline to Week 4, COGSTATE Detection test (DET)","[2]; 40 mg capsules BID or TID, reduction represents improvement, p=0.031 vs placebo, preliminary assessment",−0.024
